Measurements from US12392782B2, “Characterization of protein binding to per- and polyfluoroalkyl substances” (North Carolina State University, priority 2021, dated 2025).
Read-outs that look alike come from different tables or passages of the source.

Experiments:
HSA = HSA (Homo sapiens, UniProt P02768); experiment: Differential scanning fluorimetry (DSF) thermal shift assay of HSA binding; conditions: for bound by HSA: result in words
Method: (§1) Assays were also performed in 384-well plates, in which the reactions were performed using half the final volume (10 μL) and the concentration of each reagent was halved compared to those used in the 96-well plates.
(§2) Data are reported as mean values±SEM following background subtraction.
(§3) [formula] Top is the maximal response, bottom is minimal response, P is protein concentration, Kd is dissociation constant, X is ligand concentration, and Y is change in Tm. […] Comparison between protein concentrations and comparisons of calculated binding affinities between different compounds was performed using one-way analysis of variance (ANOVA) and a Tukey's post hoc test was performed to evaluate pair-wise differences. Significance between differences in values was defined as p<0.05.
(§4) Possible solvent effects were investigated for PFOA that was solubilized in each of the three solvents.

[1] = target: bovine serum albumin (BSA) (Bos taurus, UniProt P02769); experiment: DSF thermal shift assay of bovine serum albumin binding
Method: as §1, §2, §3
(§5) Binding affinities for certain PFAS compounds were also determined using PSA, BSA, and RSA.

[2] = Description: as §4
[3] = decarboxylation (Liberatore et al.); cited from earlier work
[4] = target: Porcine serum albumin (PSA) (Sus scrofa, UniProt P08835); experiment: DSF thermal shift assay of porcine serum albumin binding
Method: as §1, §2, §3, §5

rat serum albumin (RSA) = rat serum albumin (RSA) (Rattus norvegicus, UniProt P02770); experiment: DSF thermal shift assay of rat serum albumin binding
Method: as §1, §2, §3, §5

[5] = PFAS, 4-parameter fit of Δ Tm, mean ± SEM
[6] = PFAS, single site ligand binding model, mean ± SEM
[7] = stock solvent DMSO (50% in HBS), mean ± SEM

Porcine serum albumin (PSA), sequence (P08835 25-607): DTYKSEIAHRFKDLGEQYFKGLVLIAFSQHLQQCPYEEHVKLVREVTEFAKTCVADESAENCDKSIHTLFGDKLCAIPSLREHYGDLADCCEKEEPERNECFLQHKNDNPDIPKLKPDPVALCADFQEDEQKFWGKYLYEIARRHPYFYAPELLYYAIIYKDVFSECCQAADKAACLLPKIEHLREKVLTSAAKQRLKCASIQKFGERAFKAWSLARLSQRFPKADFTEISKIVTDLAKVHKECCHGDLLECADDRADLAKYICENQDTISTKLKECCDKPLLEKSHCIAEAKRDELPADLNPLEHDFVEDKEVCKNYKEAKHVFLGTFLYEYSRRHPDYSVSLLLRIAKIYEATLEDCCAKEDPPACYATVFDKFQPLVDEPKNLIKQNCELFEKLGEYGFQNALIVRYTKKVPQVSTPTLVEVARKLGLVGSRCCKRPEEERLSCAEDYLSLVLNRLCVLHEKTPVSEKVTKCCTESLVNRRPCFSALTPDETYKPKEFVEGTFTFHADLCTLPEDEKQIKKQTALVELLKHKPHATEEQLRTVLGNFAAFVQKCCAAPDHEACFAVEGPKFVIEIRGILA
HSA, sequence (P02768 25-609): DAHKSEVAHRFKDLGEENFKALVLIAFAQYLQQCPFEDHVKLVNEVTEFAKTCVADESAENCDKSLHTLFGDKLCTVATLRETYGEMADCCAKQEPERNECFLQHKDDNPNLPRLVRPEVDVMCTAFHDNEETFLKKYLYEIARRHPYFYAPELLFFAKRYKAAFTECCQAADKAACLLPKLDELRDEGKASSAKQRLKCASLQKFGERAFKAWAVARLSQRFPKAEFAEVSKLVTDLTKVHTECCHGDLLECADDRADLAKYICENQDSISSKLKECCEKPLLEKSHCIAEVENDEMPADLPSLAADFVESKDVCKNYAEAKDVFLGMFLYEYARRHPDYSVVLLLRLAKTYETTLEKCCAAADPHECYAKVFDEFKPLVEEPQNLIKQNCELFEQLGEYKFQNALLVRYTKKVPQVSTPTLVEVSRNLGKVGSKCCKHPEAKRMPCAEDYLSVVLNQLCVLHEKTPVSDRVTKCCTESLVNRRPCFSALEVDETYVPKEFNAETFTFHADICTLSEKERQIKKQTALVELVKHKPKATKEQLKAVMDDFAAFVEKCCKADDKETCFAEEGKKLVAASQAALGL
bovine serum albumin (BSA), sequence (P02769 25-607): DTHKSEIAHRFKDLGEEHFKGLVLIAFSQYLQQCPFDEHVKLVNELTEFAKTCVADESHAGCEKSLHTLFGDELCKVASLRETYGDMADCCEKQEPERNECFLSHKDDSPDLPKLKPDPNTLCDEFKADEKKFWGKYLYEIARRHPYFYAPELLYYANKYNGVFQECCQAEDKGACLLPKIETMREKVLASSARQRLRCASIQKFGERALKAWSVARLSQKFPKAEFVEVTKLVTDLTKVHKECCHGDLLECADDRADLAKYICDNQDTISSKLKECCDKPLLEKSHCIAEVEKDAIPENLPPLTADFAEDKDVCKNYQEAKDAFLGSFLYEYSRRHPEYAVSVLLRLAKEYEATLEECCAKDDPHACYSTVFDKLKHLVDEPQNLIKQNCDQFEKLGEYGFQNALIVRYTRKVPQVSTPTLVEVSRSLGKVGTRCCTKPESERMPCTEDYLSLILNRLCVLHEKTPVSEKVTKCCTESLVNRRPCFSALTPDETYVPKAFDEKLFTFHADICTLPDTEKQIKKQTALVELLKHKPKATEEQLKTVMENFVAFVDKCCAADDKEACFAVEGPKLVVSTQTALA
rat serum albumin (RSA), sequence (P02770 25-608): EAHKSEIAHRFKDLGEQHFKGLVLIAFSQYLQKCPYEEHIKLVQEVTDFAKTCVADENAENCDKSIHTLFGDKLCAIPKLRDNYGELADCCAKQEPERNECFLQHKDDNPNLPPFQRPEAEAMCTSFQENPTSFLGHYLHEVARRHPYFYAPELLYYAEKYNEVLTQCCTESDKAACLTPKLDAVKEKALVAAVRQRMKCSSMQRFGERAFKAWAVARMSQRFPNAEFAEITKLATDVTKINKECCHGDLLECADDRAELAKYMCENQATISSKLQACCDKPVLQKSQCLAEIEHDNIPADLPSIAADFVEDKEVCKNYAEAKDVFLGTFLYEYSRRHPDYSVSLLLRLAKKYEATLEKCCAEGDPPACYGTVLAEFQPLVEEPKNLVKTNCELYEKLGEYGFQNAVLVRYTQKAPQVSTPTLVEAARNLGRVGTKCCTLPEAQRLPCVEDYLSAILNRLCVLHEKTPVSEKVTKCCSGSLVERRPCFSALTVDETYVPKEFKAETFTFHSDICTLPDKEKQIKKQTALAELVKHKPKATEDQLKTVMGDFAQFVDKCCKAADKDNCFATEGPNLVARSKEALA

## O=C(O)CCC(F)(F)C(F)(F)C(F)(F)F [3:3 FTCA, 2H,2H,3H,3H-Perfluorohexanoic acid]
HSA
  EC50: 2060 ± 210 µM
  Kd: 1710 ± 190 µM

## OCCC(F)(F)C(F)(F)C(F)(F)C(F)(F)F [4:2 FTOH, 1H,1H,2H,2H-Perfluorohexane-1-ol]
HSA; PFAS, 0.125 mM HSA, ± SEM
  Δ Tm: 0 ± 0 °C
HSA
  bound by HSA: not bound by HSA

## O=S(=O)(O)CCC(F)(F)C(F)(F)C(F)(F)C(F)(F)F [4:2 FTSA, 2H,2H,3H,3H-Perfluorohexansulfonic acid]
HSA; PFAS, 0.125 mM HSA, ± SEM
  Δ Tm: 3.49 ± 0.084 °C
HSA; [5]
  EC50: 1450 ± 140 µM
HSA; [6]
  Kd: 1070 ± 190 µM

## O=C(O)CCC(F)(F)C(F)(F)C(F)(F)C(F)(F)C(F)(F)F [5:3 FTCA, 2H,2H,3H,3H-Perfluorooctanoic acid]
HSA
  EC50: 1480 ± 100 µM
  Kd: 620 ± 42 µM

## OCCC(F)(F)C(F)(F)C(F)(F)C(F)(F)C(F)(F)C(F)(F)F [6:2 FTOH, 1H,1H,2H,2H-Perfluorooctanol]
HSA; PFAS, 0.125 mM HSA, ± SEM
  Δ Tm: 0 ± 0 °C
HSA
  bound by HSA: not bound by HSA

## O=S(=O)(O)CCC(F)(F)C(F)(F)C(F)(F)C(F)(F)C(F)(F)C(F)(F)F [6:2 FTSA, 2H,2H,3H,3H-Perfluorooctane-1-sulfonate]
HSA; PFAS, 0.125 mM HSA, ± SEM
  Δ Tm: 3.60 ± 0.33 °C
HSA; [5]
  EC50: 470 ± 120 µM
HSA; [6]
  Kd: 370 ± 140 µM
HSA; read-out: Human Kd ± SEM, human albumin
  Kd: 370 ± 140 µM
[1]; read-out: Bovine Kd ± SEM, bovine albumin
  Kd: 930 ± 50 µM

## O=C(O)CCC(F)(F)C(F)(F)C(F)(F)C(F)(F)C(F)(F)C(F)(F)F [6:3 FTCA, 2,H,2H,3H,3H-Perfluorononanoic acid]
HSA
  EC50: 840 ± 86 µM
  Kd: 810 ± 92 µM

## O=C(O)CCC(F)(F)C(F)(F)C(F)(F)C(F)(F)C(F)(F)C(F)(F)C(F)(F)C(F)(F)F [8:3 FTCA, 2,H,2H,3H,3H-Perfluoroundecanoate]
HSA
  EC50: 1160 ± 170 µM
  Kd: 970 ± 68 µM
[2]
  aqueous solubility: limited aqueous solubility

## FC(OC(F)(F)C(F)(F)C(F)(F)F)C(F)(F)F (stereo not drawn) [E1, 1,1,1,2,2,3,3-Heptafluoro-3-(1,2,2,2-tetrafluoroethoxy)propane]
HSA; PFAS, 0.125 mM HSA, ± SEM
  Δ Tm: 7.32 ± 0.042 °C
HSA; [5]
  EC50: 2340 ± 230 µM
HSA; [6]
  Kd: 1640 ± 140 µM

## O=C(O)C(F)(OC(F)(F)C(F)(F)C(F)(F)F)C(F)(F)F (stereo not drawn) [HFPO-DA, hexafluoropropylene oxide dimer acid]
HSA; HFPO-DA in DMSO (1:1 HBS and DMSO, room temperature 4 hours before analysis)
  EC50: 2340 ± 230 µM
HSA; PFAS, 0.125 mM HSA, ± SEM
  Δ Tm: 13.7 ± 0.12 °C
HSA; [5]
  EC50: 1830 ± 250 µM
HSA; [6]
  Kd: 1600 ± 160 µM
[3]
  stability in DMSO: rapidly converted to E1

## CCCCCCCCCCCCCCCC(=O)O [Hexadecanoic Acid, hexadecanoic acid, reference compound]
HSA
  EC50: 84 ± 21 µM
  Kd: 30 ± 8 µM

## O=S(=O)(O)C(F)(F)C(F)(F)OC(F)(C(F)(F)F)C(F)(F)OC(F)C(F)(F)F (stereo not drawn) [Nafion bp2, 7H-perfluoro-4-methyl-3,6-dioxaoctanesulfonic acid]
HSA
  EC50: 1900 ± 240 µM
  Kd: 1510 ± 150 µM

## O=C(O)C(F)(F)C(F)(F)C(F)(F)F [PFBA, Perfluorobutanoic acid]
HSA
  EC50: 2610 ± 190 µM
  Kd: 2570 ± 320 µM
[4]
  Kd: 1500 ± 110 µM
[1]
  Kd: 980 ± 100 µM
Rat serum albumin (RSA)
  Kd: 1390 ± 110 µM

## O=S(=O)(O)C(F)(F)C(F)(F)C(F)(F)C(F)(F)F [PFBS, Perfluorobutanesulfonic acid]
HSA
  EC50: 1720 ± 230 µM
  Kd: 1650 ± 280 µM
[4]
  Kd: 1550 ± 40 µM
[1]
  Kd: 1130 ± 80 µM
Rat serum albumin (RSA)
  Kd: 930 ± 80 µM

## O=C(O)C(F)(F)C(F)(F)C(F)(F)C(F)(F)C(F)(F)C(F)(F)C(F)(F)C(F)(F)C(F)(F)F [PFDA, perfluorodecanoic acid]
HSA
  EC50: 1110 ± 70 µM
  Kd: 1190 ± 240 µM

## O=C(O)C(F)(F)C(F)(F)C(F)(F)C(F)(F)C(F)(F)C(F)(F)C(F)(F)C(F)(F)C(F)(F)C(F)(F)C(F)(F)F [PFDoA, perfluorododecanoic acid]
HSA; PFAS, 0.125 mM HSA, ± SEM
  Δ Tm: 7.74 ± 0.14 °C
HSA; [5]
  EC50: 2510 ± 140 µM
HSA; [6]
  Kd: 1890 ± 260 µM

## O=C(O)C(F)(F)C(F)(F)C(F)(F)C(F)(F)C(F)(F)C(F)(F)F [PFHpA, perfluoroheptanoic acid]
HSA; PFAS, 0.125 mM HSA, ± SEM
  Δ Tm: 15.3 ± 0.29 °C
HSA; [5]
  EC50: 680 ± 60 µM
HSA; [6]
  Kd: 440 ± 80 µM

## O=C(O)C(F)(F)C(F)(F)C(F)(F)C(F)(F)C(F)(F)F [PFHxA, Perfluorohexanoic acid]
HSA
  EC50: 1400 ± 110 µM
  Kd: 1640 ± 190 µM
[4]
  Kd: 1420 ± 30 µM
[1]
  Kd: 950 ± 110 µM
Rat serum albumin (RSA)
  Kd: 960 ± 70 µM

## O=S(=O)(O)C(F)(F)C(F)(F)C(F)(F)C(F)(F)C(F)(F)C(F)(F)F [PFHxS, perfluorohexanesulfonic acid]
HSA; PFAS, 0.125 mM HSA, ± SEM
  Δ Tm: 11.0 ± 0.17 °C
HSA; [5]
  EC50: 980 ± 28 µM
HSA; [6]
  Kd: 710 ± 190 µM

## O=C(O)C(F)(F)C(F)(F)C(F)(F)C(F)(F)C(F)(F)C(F)(F)C(F)(F)C(F)(F)F [PFNA, perfluorononanoic acid]
HSA
  EC50: 600 ± 92 µM
  Kd: 580 ± 87 µM

## O=C(O)C(F)(F)OC(F)(F)C(F)(F)OC(F)(F)C(F)(F)OC(F)(F)F [PFO3DoDA, Perfluoro-3,6,9-trioxadecanoic acid]
HSA; PFAS, 0.125 mM HSA, ± SEM
  Δ Tm: 20.6 ± 0.58 °C
HSA; [5]
  EC50: 1670 ± 190 µM
HSA; [6]
  Kd: 1530 ± 140 µM

## O=C(O)C(F)(F)C(F)(F)C(F)(F)C(F)(F)C(F)(F)C(F)(F)C(F)(F)F [PFOA, perfluorooctanoic acid]
HSA; [5]
  EC50: 840 ± 43 µM
HSA; stock solvent DMSO (50% in HBS)
  Δ Tm: 13.2 °C
HSA; [7]
  EC50: 850 ± 10 µM
  Kd: 840 ± 80 µM
HSA; stock solvent HEPES-buffered saline (HBS), mean ± SEM
  Kd: 830 ± 110 µM
HSA; stock solvent Methanol (30% in HBS)
  Δ Tm: 13.5 °C
HSA; stock solvent Methanol (30% in HBS), mean ± SEM
  EC50: 780 ± 70 µM
[4]
  Kd: 320 ± 40 µM
[1]
  Kd: 750 ± 50 µM

## O=S(=O)(O)C(F)(F)C(F)(F)C(F)(F)C(F)(F)C(F)(F)C(F)(F)C(F)(F)C(F)(F)F [PFOS, perfluorooctanesulfonic acid]
HSA
  EC50: 1130 ± 130 µM

## O=C(O)C(F)(F)C(F)(F)C(F)(F)C(F)(F)F [PFPeA, perfluoropentanoic acid]
HSA
  EC50: 2140 ± 170 µM
  Kd: 2100 ± 230 µM

## O=C(O)C(F)(F)C(F)(F)C(F)(F)C(F)(F)C(F)(F)C(F)(F)C(F)(F)C(F)(F)C(F)(F)C(F)(F)F [PFunDA, Perfluoroundecanoic acid]
HSA
  EC50: 1490 ± 24 µM
  Kd: 1360 ± 530 µM
